Assay [1] concerns Ser40 phosphorylation of Th in HEK cells transfected with Th. The assay is described as follows: Th Ser40 phosphorylation in HEK cells transfected with Th (western blot). The format is cell-based. The note with it: HEK-293 transfected with Th, low concentrations (1 μM). The protocol:
FIG. 3. HEK cells are a suitable model to study GUCY2C-induced Ser40 phosphorylation. (A) RT-qPCR data from intact HEK extracts. Input material was 10 ng of total RNA. Cp corresponds to the cycle number in which the expression starts to be considered positive. (−) represents the water control, which is negative in every case. (B) HEK cultures were transfected with Th and treated with a cGMP analogue 48 hours post-plating. Changes in Ser40 phosphorylation were studied. The graph represents the statistical analysis (n=6; Mean±SEM). Unpaired Student's t-test (p-value: ****<0.0001). Hereon, ‘Fold Change’ corresponds to the ratio P-Ser40/Total Th.
FIG. 7. PDE2a is an important effector regulating Ser40 phosphorylation in MN9D cells. BAY-60-7550 dose-curve and representative examples in MN9D (n=9, red) and HEK cells (n=4, blue) (Mean±SEM). Cells were treated with various concentrations of BAY 60-7750 and analyzed for Th phosphorylation on Ser40 , total Th and actin.
HEK cells were maintained in 100-mm Petri dishes and grown in DMEM medium supplemented with L-glutamine, penicillin-streptomycin (Pen&Strep) and 10% heat-inactivated fetal bovine serum (HIFBS). Growing conditions were 37° C. and 5% CO2. For every-other-day passages, HEK cultures were split at a 1:3 dilution. From Friday to Monday, the split proportion was doubled for all cell lines. For passaging, cultures were rinsed with PBS and incubated with 1 mL of trypsin during 5 minutes. Cells were resuspended in growth medium and finally split to the proper dilution. The experiments were performed in 12-well plates. For immunocytochemistry analysis, sterile 18-mm coverslips were added prior to the plating. 500 !μL of cell resuspension was seeded in each well. If experiments were to be performed 48 hours after the plate preparation, 1:5 was the seeding ratio for HEK cells. When the experiments took place 96 hours post-plating, 1:7 was the working dilution for HEK cells. Unless otherwise stated, HEK cultures were processed 96 hours post-plating.
HEK cells were transfected using the calcium-phosphate method. […]

The next assay deals with T1, GUCY2C R792S mutant (Homo sapiens, UniProt P25092, R792S).
T1 construct: expressed in transfected cells; host or cells: HEK cells, co-transfected with Th
Nature of the assay: Th Ser40 phosphorylation in HEK cells co-transfected with Th and GUCY2C R792S gain-of-function mutant versus wt. The format is cell-based. To be noted: HEK co-transfected with Th and wt or R792S GUCY2C, guanylin treatment. The method, then:
FIG. 5. […] (A) HEK cultures were treated with guanylin, in the presence or absence of IBMX. […] Unpaired Student's t-test (p-values: ****<0.0001, **<0.01, *<0.05). (B) HEK cells were co-transfected with Th and either the wt GUCY2C or a gain-of-function mutant (R792S). Ser40 phosphorylation was studied following guanylin treatment (G). […] Unpaired Student's t-test (p-values: ***<0.001, **<0.01).
HEK cells were transfected using the calcium-phosphate method. 12-well plates were refreshed with 500 μL of growth medium before transfection. […] The plasmid mixture was taken into a final concentration of 250 mM CaCl2 in a total volume of 110 μL. A complementary tube was filled with 110 μL of HEPES-buffered saline 2X (HEBS 2X: 1.5 mM Na2HPO4, 50 mM HEPES pH 7.05, 280 mM NaCl). The tube with CaCl2 was pipetted drop-wise into the HEBS and mixed gently. After 60 seconds of incubation, 55 µL of the final mixture was added to each well. […]
Up to 35 μL of sample was loaded in each slot and run in the presence of tris-glycine buffer and 0.1% SDS. […] After additional washings during 1 hour, blots were exposed to an enhanced chemiluminescence solution and the signal was detected using an Odyssey imager (LI-COR). […] For graph quantifications, ‘Fold Change’ represents the ratio P-Ser40/Total Th. Statistical comparisons between pair of groups correspond to unpaired Student's t-tests, as calculated with GraphPad Prism. […]

T1 sequence (P25092 24-1073 R792S): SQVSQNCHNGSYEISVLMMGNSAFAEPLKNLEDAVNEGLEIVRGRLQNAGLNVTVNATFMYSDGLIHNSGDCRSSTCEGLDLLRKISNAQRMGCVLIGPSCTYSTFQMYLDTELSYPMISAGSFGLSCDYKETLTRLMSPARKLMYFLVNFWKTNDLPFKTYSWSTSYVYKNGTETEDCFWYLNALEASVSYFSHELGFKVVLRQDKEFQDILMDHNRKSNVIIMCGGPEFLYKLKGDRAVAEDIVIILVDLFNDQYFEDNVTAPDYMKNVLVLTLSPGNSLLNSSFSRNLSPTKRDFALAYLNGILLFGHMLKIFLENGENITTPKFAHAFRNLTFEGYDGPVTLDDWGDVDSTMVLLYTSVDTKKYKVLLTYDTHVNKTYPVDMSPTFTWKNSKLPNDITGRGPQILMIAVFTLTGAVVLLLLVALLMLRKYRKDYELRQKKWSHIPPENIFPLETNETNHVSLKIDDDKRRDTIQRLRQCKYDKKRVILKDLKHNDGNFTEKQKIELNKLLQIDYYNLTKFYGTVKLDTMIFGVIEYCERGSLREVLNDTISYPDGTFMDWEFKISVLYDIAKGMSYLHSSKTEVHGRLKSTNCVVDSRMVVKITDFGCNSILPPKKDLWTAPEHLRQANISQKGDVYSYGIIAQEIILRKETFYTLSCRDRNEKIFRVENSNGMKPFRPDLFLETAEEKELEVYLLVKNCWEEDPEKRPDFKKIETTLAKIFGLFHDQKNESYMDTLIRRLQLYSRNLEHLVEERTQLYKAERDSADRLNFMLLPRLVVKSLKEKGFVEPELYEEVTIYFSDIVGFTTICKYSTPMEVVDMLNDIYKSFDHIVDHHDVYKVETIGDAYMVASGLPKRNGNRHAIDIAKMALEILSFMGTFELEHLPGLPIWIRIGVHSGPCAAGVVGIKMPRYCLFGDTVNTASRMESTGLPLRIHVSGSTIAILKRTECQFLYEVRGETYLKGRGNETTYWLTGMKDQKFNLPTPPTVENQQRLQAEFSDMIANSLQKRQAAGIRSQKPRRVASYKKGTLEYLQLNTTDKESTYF

`COc1ccc(Cc2nn3c([C@@H](CCCc4ccccc4)[C@@H](C)O)nc(C)c3c(=O)[nH]2)cc1OC` [BAY 60-7550]: the “effect on Ser40 phosphorylation in HEK cells” value in assay [1] is “hardly exhibit any effect”; in assay [1] (listed as BAY 60-7750), “almost no effect”.
For “guanylin: natural agonistic ligand of GUCY2C, 15 amino acid polypeptide; commercially available rat/mouse guanylin (Chemcruz) (PNTCEICAYAACTGC) [reference compound]”, the “boost in Ser40 phosphorylation with R792S mutant compared to the wt receptor” value with GUCY2C R792S mutant is reported as 1.5 fold.

The values are drawn from patent US20210330736A1 (UNIVERSITEIT VAN AMSTERDAM, priority 2018, published 2021).
